Assays:
Experiment in all cases: relative viability (nuclei count vs DMSO), 5 days (fraction); higher = more cells survive
UMC-11 = test system: UMC-11
Outline: (§1)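 Five library-drug doses in √10 steps were combined with a fixed anchor-drug dose, or a single drug was given alone, by pin tool to lung cancer cell lines in 1536-well plates the day after seeding. Nuclei were stained and counted after 5 days. Relative viability is the nuclei count in treated wells over that in vehicle wells, taken as the median of duplicate plates.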

NCI-H1355 = test system: NCI-H1355
Outline: as §1

NCI-H1648 = test system: NCI-H1648
Outline: as §1

LCLC-97TM1 = test system: LCLC-97TM1
Outline: as §1

NCI-H1623 = test system: NCI-H1623
Outline: as §1

NCI-H596 = test system: NCI-H596
Outline: as §1

NCI-H23 = test system: NCI-H23
Outline: as §1

NCI-H322M = test system: NCI-H322M
Outline: as §1

NCI-H1993 = test system: NCI-H1993
Outline: as §1

With `COc1cc2nccc(Oc3ccc(NC(=O)Nc4cc(C)on4)c(Cl)c3)c2cc1OC` [Tivozanib] + COc1cccc2cc(-c3nc([C@H]4CC[C@H](C(=O)O)CC4)n4ncnc(N)c34)[nH]c12 [OSI-027] (partner 0.5 µM) the relative viability (UMC-11; first compound 0.005 µM) was 0.491, the relative viability (UMC-11; first compound 0.01581 µM) was 0.451 and the relative viability (UMC-11; first compound 0.05 µM) was 0.536. For the same molecule, the relative viability (UMC-11; first compound 0.5 µM) was 0.426, the relative viability (NCI-H1355; first compound 0.005 µM) was 0.419 and the relative viability (NCI-H1355; first compound 0.01581 µM) was 0.48. It also gave a relative viability (NCI-H1355; first compound 0.05 µM) of 0.475, a relative viability (NCI-H1355; first compound 0.1581 µM) of 0.273 and a relative viability (NCI-H1355; first compound 0.5 µM) of 0.343. It also gave a relative viability (NCI-H1648; first compound 0.005 µM) of 0.255, a relative viability (NCI-H1648; first compound 0.01581 µM) of 0.25 and a relative viability (NCI-H1648; first compound 0.05 µM) of 0.221. It also gave a relative viability (NCI-H1648; first compound 0.1581 µM) of 0.218, a relative viability (NCI-H1648; first compound 0.5 µM) of 0.258 and a relative viability (LCLC-97TM1; first compound 0.005 µM) of 0.52. For the same molecule, the relative viability (LCLC-97TM1; first compound 0.01581 µM) was 0.573, the relative viability (LCLC-97TM1; first compound 0.05 µM) was 0.636 and the relative viability (LCLC-97TM1; first compound 0.1581 µM) was 0.476. It also gave a relative viability (LCLC-97TM1; first compound 0.5 µM) of 0.455, a relative viability (NCI-H1623; first compound 0.005 µM) of 0.414 and a relative viability (NCI-H1623; first compound 0.01581 µM) of 0.445. For the same molecule, the relative viability (NCI-H1623; first compound 0.05 µM) was 0.431, the relative viability (NCI-H1623; first compound 0.1581 µM) was 0.407 and the relative viability (NCI-H1623; first compound 0.5 µM) was 0.459. It also gave a relative viability (NCI-H596; first compound 0.005 µM) of 0.681, a relative viability (NCI-H596; first compound 0.01581 µM) of 0.596 and a relative viability (NCI-H596; first compound 0.05 µM) of 0.866. The relative viability (NCI-H596; first compound 0.5 µM) was 0.59, the relative viability (NCI-H23; first compound 0.005 µM) was 0.578 and the relative viability (NCI-H23; first compound 0.01581 µM) was 0.595. For the same molecule, the relative viability (NCI-H23; first compound 0.05 µM) was 0.671, the relative viability (NCI-H23; first compound 0.1581 µM) was 0.355 and the relative viability (NCI-H23; first compound 0.5 µM) was 0.367. For the same molecule, the relative viability (NCI-H322M; first compound 0.005 µM) was 0.513, the relative viability (NCI-H322M; first compound 0.01581 µM) was 0.603 and the relative viability (NCI-H322M; first compound 0.05 µM) was 0.545. The relative viability (NCI-H322M; first compound 0.1581 µM) was 0.455, the relative viability (NCI-H322M; first compound 0.5 µM) was 0.461 and the relative viability (NCI-H1993; first compound 0.005 µM) was 0.503. It also gave a relative viability (NCI-H1993; first compound 0.01581 µM) of 0.534, a relative viability (NCI-H1993; first compound 0.05 µM) of 0.543 and a relative viability (NCI-H1993; first compound 0.1581 µM) of 0.518. For the same molecule, the relative viability (NCI-H1993; first compound 0.5 µM) was 0.429.
Molecule `Cc1sc2c(c1C)C(c1ccc(Cl)cc1)=N[C@@H](CC(=O)OC(C)(C)C)c1nnc(C)n1-2` [JQ1] + COc1cccc2cc(-c3nc([C@H]4CC[C@H](C(=O)O)CC4)n4ncnc(N)c34)[nH]c12 [OSI-027] (partner 0.5 µM) has a relative viability (UMC-11; first compound 0.04 µM) of 0.396, a relative viability (UMC-11; first compound 0.1265 µM) of 0.399 and a relative viability (UMC-11; first compound 0.4 µM) of 0.258. It also gave a relative viability (UMC-11; first compound 1.265 µM) of 0.192, a relative viability (UMC-11; first compound 4 µM) of 0.182 and a relative viability (NCI-H1355; first compound 0.04 µM) of 0.429. The relative viability (NCI-H1355; first compound 0.1265 µM) was 0.374, the relative viability (NCI-H1355; first compound 0.4 µM) was 0.42 and the relative viability (NCI-H1355; first compound 1.265 µM) was 0.25. It also gave a relative viability (NCI-H1355; first compound 4 µM) of 0.253, a relative viability (NCI-H1648; first compound 0.04 µM) of 0.285 and a relative viability (NCI-H1648; first compound 0.1265 µM) of 0.287. The relative viability (NCI-H1648; first compound 0.4 µM) was 0.304, the relative viability (NCI-H1648; first compound 1.265 µM) was 0.206 and the relative viability (NCI-H1648; first compound 4 µM) was 0.274. For the same molecule, the relative viability (LCLC-97TM1; first compound 0.04 µM) was 0.476, the relative viability (LCLC-97TM1; first compound 0.1265 µM) was 0.674 and the relative viability (LCLC-97TM1; first compound 0.4 µM) was 0.594. The relative viability (LCLC-97TM1; first compound 1.265 µM) was 0.4, the relative viability (LCLC-97TM1; first compound 4 µM) was 0.199 and the relative viability (NCI-H1623; first compound 0.04 µM) was 0.446. For the same molecule, the relative viability (NCI-H1623; first compound 0.1265 µM) was 0.433, the relative viability (NCI-H1623; first compound 0.4 µM) was 0.363 and the relative viability (NCI-H1623; first compound 1.265 µM) was 0.328. For the same molecule, the relative viability (NCI-H1623; first compound 4 µM) was 0.291, the relative viability (NCI-H596; first compound 0.04 µM) was 0.809 and the relative viability (NCI-H596; first compound 0.1265 µM) was 0.892. For the same molecule, the relative viability (NCI-H596; first compound 0.4 µM) was 0.539, the relative viability (NCI-H596; first compound 1.265 µM) was 0.334 and the relative viability (NCI-H596; first compound 4 µM) was 0.283. It also gave a relative viability (NCI-H23; first compound 0.04 µM) of 0.586, a relative viability (NCI-H23; first compound 0.1265 µM) of 0.583 and a relative viability (NCI-H23; first compound 0.4 µM) of 0.394. The relative viability (NCI-H23; first compound 1.265 µM) was 0.198, the relative viability (NCI-H23; first compound 4 µM) was 0.204 and the relative viability (NCI-H322M; first compound 0.04 µM) was 0.518. It also gave a relative viability (NCI-H322M; first compound 0.1265 µM) of 0.589, a relative viability (NCI-H322M; first compound 0.4 µM) of 0.477 and a relative viability (NCI-H322M; first compound 1.265 µM) of 0.321. It also gave a relative viability (NCI-H322M; first compound 4 µM) of 0.339, a relative viability (NCI-H1993; first compound 0.04 µM) of 0.511 and a relative viability (NCI-H1993; first compound 0.1265 µM) of 0.608. The relative viability (NCI-H1993; first compound 0.4 µM) was 0.623, the relative viability (NCI-H1993; first compound 1.265 µM) was 0.537 and the relative viability (NCI-H1993; first compound 4 µM) was 0.538.
Molecule `COc1cc2nccc(Oc3ccc(NC(=O)Nc4cc(C)on4)c(Cl)c3)c2cc1OC` [Tivozanib] + Cc1cc(Nc2cc(N3CCN(C)CC3)nc(Sc3ccc(NC(=O)C4CC4)cc3)n2)n[nH]1 [Tozasertib] (partner 0.1 µM) has a relative viability (UMC-11; first compound 0.005 µM) of 0.208, a relative viability (UMC-11; first compound 0.01581 µM) of 0.2 and a relative viability (UMC-11; first compound 0.05 µM) of 0.198. It also gave a relative viability (UMC-11; first compound 0.5 µM) of 0.211, a relative viability (NCI-H1355; first compound 0.005 µM) of 0.515 and a relative viability (NCI-H1355; first compound 0.01581 µM) of 0.576. The relative viability (NCI-H1355; first compound 0.05 µM) was 0.57, the relative viability (NCI-H1355; first compound 0.1581 µM) was 0.614 and the relative viability (NCI-H1355; first compound 0.5 µM) was 0.53. The relative viability (NCI-H1648; first compound 0.005 µM) was 0.482, the relative viability (NCI-H1648; first compound 0.01581 µM) was 0.534 and the relative viability (NCI-H1648; first compound 0.05 µM) was 0.436. It also gave a relative viability (NCI-H1648; first compound 0.1581 µM) of 0.536, a relative viability (NCI-H1648; first compound 0.5 µM) of 0.545 and a relative viability (LCLC-97TM1; first compound 0.005 µM) of 0.236. The relative viability (LCLC-97TM1; first compound 0.01581 µM) was 0.168, the relative viability (LCLC-97TM1; first compound 0.05 µM) was 0.274 and the relative viability (LCLC-97TM1; first compound 0.1581 µM) was 0.357. For the same molecule, the relative viability (LCLC-97TM1; first compound 0.5 µM) was 0.197, the relative viability (NCI-H1623; first compound 0.005 µM) was 0.42 and the relative viability (NCI-H1623; first compound 0.01581 µM) was 0.467. The relative viability (NCI-H1623; first compound 0.05 µM) was 0.47, the relative viability (NCI-H1623; first compound 0.5 µM) was 0.424 and the relative viability (NCI-H596; first compound 0.005 µM) was 0.873. For the same molecule, the relative viability (NCI-H596; first compound 0.01581 µM) was 0.888, the relative viability (NCI-H596; first compound 0.05 µM) was 0.939 and the relative viability (NCI-H596; first compound 0.5 µM) was 0.885. It also gave a relative viability (NCI-H23; first compound 0.005 µM) of 0.324, a relative viability (NCI-H23; first compound 0.01581 µM) of 0.323 and a relative viability (NCI-H23; first compound 0.05 µM) of 0.547. It also gave a relative viability (NCI-H23; first compound 0.1581 µM) of 0.406, a relative viability (NCI-H23; first compound 0.5 µM) of 0.427 and a relative viability (NCI-H322M; first compound 0.005 µM) of 0.455. The relative viability (NCI-H322M; first compound 0.01581 µM) was 0.48, the relative viability (NCI-H322M; first compound 0.05 µM) was 0.518 and the relative viability (NCI-H322M; first compound 0.1581 µM) was 0.395. It also gave a relative viability (NCI-H322M; first compound 0.5 µM) of 0.479, a relative viability (NCI-H1993; first compound 0.005 µM) of 0.559 and a relative viability (NCI-H1993; first compound 0.01581 µM) of 0.585. For the same molecule, the relative viability (NCI-H1993; first compound 0.05 µM) was 0.568, the relative viability (NCI-H1993; first compound 0.1581 µM) was 0.485 and the relative viability (NCI-H1993; first compound 0.5 µM) was 0.513.

From the supplement of paper PMC10307832
